Results: patent publication US20200360647A1, “Use Of Inhaled Nitric Oxide For The Improvement Of Right And/Or Left Ventricular Function” (Bellerophon Pulse Technologies LLC, priority 2017, published 2020)
Where “and” joins values, the source holds several entries; their conditions need not be identical. Identical values can stand only once.

Columns and labels:
Format in all cases: in vivo, human
subjects with PH-COPD [1] = assay: Six-minute walk distance (6MWD) during chronic iNO therapy, PH-COPD study; settings: iNO 30 mcg/kg IBW/hr, individual subjects #1-#7
Excerpt: (§1) This study is an open label Phase 1 study of iNO therapy in subjects with PH-COPD (PULSE-COPD-007; NCT03135860). The primary outcome of this study is the change in lobar blood volume at total lung capacity with iNO and the change in lobar blood volume with iNO after 4 weeks of treatment with iNO as measured by HRCT.
(§2) Subjects also had sPAP≥38 mm Hg as measured by echocardiogram, a post-bronchodilatory FEV1/FVC<0.7 and a FEV1<60% predicted. All subjects were at least 40 years old and were current or former smokers with at least 10 pack-years of tobacco cigarette smoking before study entry. All subjects also had been receiving LTOT for at least 3 months for at least 10 hours per day.
(§3) The PH-COPD subjects received pulsed iNO therapy for 4 weeks for at least 12 hours/day. The iNO was administered utilizing a 4,880 ppm NO cylinder concentration.
(§4) A further analysis was performed of seven PH-COPD subjects that completed 4 weeks of treatment with iNO at a dose of 30 mcg/kg IBW/hr.

subjects with PH-COPD [2] = assay: sPAP by echocardiogram during chronic iNO therapy, PH-COPD study
Excerpt: as §1, §2, §3
A further analysis was performed of seven PH-COPD subjects that completed 4 weeks of treatment with iNO at a dose of 30 mcg/kg IBW/hr. […]

subjects with PH-COPD [3] = assay: TAPSE (RV function) during chronic pulsed iNO therapy, PH-COPD study; design: TAPSE Increase: unit not given beside the values
Excerpt: (§5) Maintenance and/or improvements in RV function can be assessed by many echocardiographic measurements. One such quantitative approach to assess RV function is the measurement of the TAPSE. The TAPSE estimates RV systolic function by measuring the level of systolic excursion of the lateral tricuspid valve annulus towards the apex. An excellent correlation between the TAPSE and RV ejection fraction as assessed by radionuclide angiography has previously been established and the approach appears reproducible and proven to be a strong predictor of prognosis in heart failure. [Reference: Heart. 2006 April; 92(Suppl 1): i19-i26.]
as §1, §2, §3
These subjects were diagnosed with PH-COPD and received 4 weeks of treatment with iNO at a dose of 30 mcg/kg IBW/hr. The results verify the increase in TAPSE which correlates to RV function.

[4] = tested on: subjects with PH-IPF on LTOT; assay: sPAP by echocardiogram, acute iNO, PH-IPF study; settings: iNO 75 mcg/kg IBW/hr, individual patients (Patient 1, Patient 2)
Excerpt: This study was an exploratory, three-part, clinical study to assess the effect of pulsed iNO on functional pulmonary imaging parameters in subjects with PH-COPD on LTOT (Part 1) PH-IPF on LTOT (Part 2 and Part 3) (IK-7002-COPD-006; NCT02267655). The objective of this exploratory study was to examine the utility of high resolution computed tomography (HRCT) to measure changes in functional respiratory imaging parameters as a function of short term iNO administration using a pulsed NO delivery device in subjects with PH-IPF (Part 2 and Part 3) on LTOT. The primary endpoint in this exploratory study is the change from baseline in lobar blood volume at total lung capacity (TLC) after dosing with pulsed iNO (Part 1), iNO or Placebo (Part 2a) and after 4 weeks iNO treatment (Part 3b) as measured by HRCT. […]
(§6) The 2 subjects enrolled in Part 3a each received three different doses of iNO utilizing NO cylinder concentration (4,880 ppm) at a dose of 5 mcg/kg IBW/hr, 10 mcg/kg IBW/hr and 30 mcg/kg IBW/hr, all with LTOT. For each dose, the change in PAP pressure and the change in cardiac output was evaluated by RHC. […]
During the chronic phase, the vasodilation and the hemodynamics were assessed. […] Both the acute and chronic phases evaluated iNO doses of 30 and 75 mcg/kg IBW/hr.

subjects with PH-COPD [5] = assay: HRCT blood vessel volume, acute iNO, PH-COPD study (PULSE-COPD-007); settings: individual subjects #1-#7
Excerpt: as §1, §2, §3, §4

[6] = tested on: subjects with PH-IPF on LTOT; assay: HRCT blood vessel volume, acute iNO, PH-IPF study (IK-7002-COPD-006); settings: iNO 75 mcg/kg IBW/hr, individual patients (Patient 1, Patient 2)
Excerpt: This study was an exploratory, three-part, clinical study to assess the effect of pulsed iNO on functional pulmonary imaging parameters in subjects with PH-COPD on LTOT (Part 1) PH-IPF on LTOT (Part 2 and Part 3) (IK-7002-COPD-006; NCT02267655). The objective of this exploratory study was to examine the utility of high resolution computed tomography (HRCT) to measure changes in functional respiratory imaging parameters as a function of short term iNO administration using a pulsed NO delivery device in subjects with PH-IPF (Part 2 and Part 3) on LTOT. The primary endpoint in this exploratory study is the change from baseline in lobar blood volume at total lung capacity (TLC) after dosing with pulsed iNO (Part 1), iNO or Placebo (Part 2a) and after 4 weeks iNO treatment (Part 3b) as measured by HRCT.
This was an exploratory clinical study to evaluated the utility of HRCT to measure the pharmacodynamic effects of short term pulsed administration of iNO using a pulsed NO delivery device in subjects with PH-IPF (Part 2 and Part 3) on LTOT. […]
as §6

[7] = tested on: subjects with PH-IPF on LTOT; assay: Safety and tolerability of iNO dose, PH-IPF study
Method: The safety endpoints in this study were: • a. Incidence and severity of treatment emergent adverse events (AEs), including those related to device deficiency; • b. Incidence of MetHb levels>7.0%; • c. New symptoms that may be due to rebound PH associated with a temporal acute withdrawal of investigational study drug (i.e., symptoms occurring within 20 minutes of acute withdrawal and including those associated with investigational medical device malfunction or failure): systemic arterial oxygen desaturation, hypoxemia, bradycardia, tachycardia, systemic hypotension, near-syncope, syncope, ventricular fibrillation, and/or cardiac arrest; • d. New or worsening symptoms of left heart failure or pulmonary edema; and • e. Any decrease in systemic oxygenation measured by oxygen saturation of arterial blood by pulse oximetry (SpO2), i.e., hypoxia or oxygen saturation decrease, deemed by the Investigator to be clinically significant.
The initial protocol intended that 4 subjects would be enrolled in Part 2. […] It was decided to temporarily stop recruitment. One of the 2 subjects completed 4 weeks of chronic use in Part 2b.
In the amendment a total of 2 subjects participated in Part 3. The dose in Part 3 was lower than in Part 2 and each subject was titrated to the optimum dose as determined by the investigator. […] The dose was monitored with a RHC in place. […]

[8] = tested on: subjects with PH-IPF on LTOT; assay: TAPSE (RV function) during chronic pulsed iNO therapy, PH-IPF study
Excerpt: as §5
The secondary endpoints of Part 2a (acute; placebo vs. iNO 75 mcg/kg IBW/hr) were change in Borg CR10 leg fatigue and dyspnea scale, changes in breathing questionnaire and changes in right ventricular and left ventricular function.
One patient from Part 2a entered into Part 2b. During Part 2b patient receive iNO utilizing NO cylinder concentration (4,880 ppm) at a dose of 75 mcg/kg IBW/hr during 4 weeks for at least 12 hours/day.
The 2 patients from Part 3a entered Part 3b. During Part 3b, patients received iNO utilizing NO cylinder concentration (4,880 ppm) at a dose of 30 mcg/kg IBW/hr.
Subject 1 received pulsed iNO at a dose of 75 mcg/kg IBW/hr for 4 weeks, and Subject 3 received pulsed iNO at a dose of 30 mcg/kg IBW/hr for 4 weeks.

[9] = group value, vs baseline 60.3 mm Hg, p=0.02
[10] = iNO 30 mcg/kg IBW/hr, 4 weeks vs baseline, individual subjects #1-#7
[11] = iNO 30 mcg/kg IBW/hr for 4 weeks, average of four subjects, vs baseline
[12] = iNO 30 mcg/kg IBW/hr for 4 weeks, vs baseline, individual subjects (1, 6, 7, 12)
[13] = PH-IPF Subject 1, pulsed iNO 75 mcg/kg IBW/hr for 4 weeks, vs baseline
[14] = PH-IPF Subject 3, pulsed iNO 30 mcg/kg IBW/hr for 4 weeks, vs baseline
[15] = PH-IPF, average of Subject 1 (75) and Subject 3 (30 mcg/kg IBW/hr), 4 weeks, vs baseline

Q: `[N]=O` [iNO, nitric oxide] was tested. Which “6MWD Change from Baseline, 2 weeks iNO” value (subjects with PH-COPD [1]; 2 weeks vs baseline) did it give?
A: The value was “+135 meters and +79 meters and +15 meters and +35 meters and +25 meters and +57 meters and +32 meters”.

Q: And the “6MWD, 2 weeks iNO” value (subjects with PH-COPD [1]; 2 weeks)?
A: Its value is 335 meters and 263 meters and 493 meters and 115 meters and 495 meters and 400 meters and 173 meters.

Q: And the “6MWD Change from Baseline, 4 weeks iNO” value (subjects with PH-COPD [1]; 4 weeks vs baseline)?
A: The value was “+135 meters and +11 meters and +2 meters and −3 meters and +28 meters and +80 meters and +100 meters”.

Q: And the “6MWD, 4 weeks iNO” value (subjects with PH-COPD [1]; 4 weeks)?
A: The value was 335 meters and 195 meters and 480 meters and 77 meters and 498 meters and 423 meters and 242 meters.

Q: What about the “sPAP 4 weeks after iNO therapy was discontinued” value (subjects with PH-COPD [2]; group value (FIG. 6)) of the same compound?
A: The value was 58.0 mm Hg.

Q: What about the “sPAP drop after 4 weeks of iNO therapy” value (subjects with PH-COPD [2]; [9]) of the same compound?
A: Its value is 12.0 mm Hg.

Q: And the “sPAP drop after 4 weeks of iNO therapy (%)” value (subjects with PH-COPD [2]; [9])?
A: The value was 19.9%.

Q: And the “sPAP, 4 weeks iNO” value (subjects with PH-COPD [2]; iNO 30 mcg/kg IBW/hr for 4 weeks, individual subjects #1-#7)?
A: The value was 69 mm Hg and 37 mm Hg and 40 mm Hg and 74 mm Hg and 30 mm Hg and 34 mm Hg and 54 mm Hg.

Q: And the “Change sPAP (mm Hg)” value (subjects with PH-COPD [2]; [10])?
A: The value was −25 mm Hg and −10 mm Hg (2×) and −15 mm Hg and −4 mm Hg and −12 mm Hg and −8 mm Hg.

Q: And the “sPAP % Change” value (subjects with PH-COPD [2]; [10])?
A: The value was −27% (2×) and −21% and −5% and −25% and −26% and −13%.

Q: What about the “TAPSE after iNO therapy was discontinued” value (subjects with PH-COPD [3]; group value, N=5 (FIG. 7)) of the same compound?
A: The value was 19.0.

Q: What about the “TAPSE 4 Week, Average” value (subjects with PH-COPD [3]; iNO 30 mcg/kg IBW/hr for 4 weeks, average of four subjects, baseline 16) of the same compound?
A: The value was 20.

Q: What about the “TAPSE % Change, Average” value (subjects with PH-COPD [3]; [11]) of the same compound?
A: The value was 25%.

Q: What about the “TAPSE Increase, Average” value (subjects with PH-COPD [3]; [11]) of the same compound?
A: Its value is 4.

Q: And the “TAPSE 4 Week” value (subjects with PH-COPD [3]; iNO 30 mcg/kg IBW/hr for 4 weeks, individual subjects (1, 6, 7, 12))?
A: Its value is 14 and 18 (2×) and 28.

Q: And the “TAPSE % Change” value (subjects with PH-COPD [3]; [12])?
A: Its value is 0% and 67% and 22% and 13%.

Q: And the “TAPSE Increase” value (subjects with PH-COPD [3]; [12])?
A: The value was 0 and 7 and 5 and 2.

Q: What about the “Acute Change in sPAP (%)” value [4] of the same compound?
A: Its value is −9.3% and −9.7%.

Q: What about the “Acute change in Blood Vessel Volume %” value (subjects with PH-COPD [5]) of the same compound?
A: The value was 6.2 ± 1.6% and 3.3 ± 2.1% and 6.6 ± 4.5% and 9.7 ± 3.5% and −1.0 ± 4.0% and 2.7 ± 0.4%.

Q: And the “Acute change in Blood Vessel Volume %” value [6]?
A: Its value is 14.0 ± 4.7% and 34.2 ± 7.6%.

Q: And the “Safety of dose titration monitored with RHC” value ([7]; 2 PH-IPF subjects of Part 3, titrated 5, 10, 30 mcg/kg IBW/hr)?
A: Its value is “could titrate to iNO at a dose of 30 mcg/kg IBW/hr safely”.

Q: And the “PAP after discontinuation of iNO” value ([7]; two PH-IPF patients of Part 2, iNO 75 mcg/kg IBW/hr)?
A: The value was “sudden increase in PAP after discontinuation”.

Q: And the “TAPSE % Change” value [8, 13]?
A: The value was 21%.

Q: And the “TAPSE Increase” value [8, 13]?
A: The value was 3.

Q: What about the “TAPSE % Change” value [8, 14] of the same compound?
A: The value was 12%.

Q: What about the “TAPSE Increase” value [8, 14] of the same compound?
A: The value was 4.

Q: What about the “TAPSE % Change, Average” value [8, 15] of the same compound?
A: The value was 15%.

Q: And the “TAPSE Increase, Average” value [8, 15]?
A: Its value is 3.

Q: What about the “TAPSE 4 Week, Average” value ([8]; PH-IPF, average of Subject 1 (75 mcg/kg IBW/hr) and Subject 3 (30 mcg/kg IBW/hr), 4 weeks, baseline 20) of the same compound?
A: The value was 23.
